Like-named read-outs stand apart in the source and are kept apart here.

A word on the IC50: it is the concentration that gives 50% inhibition.

This assay deals with Active Human ERK2 (hERK2) (Homo sapiens (Human), UniProt P28482). Description: Active Human ERK2 (hERK2) Activity Assay (IMAP-FP). The format is biochemical. The gist of the method:
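Reaction contains 0.5 nM activated hERK2, 900 nM unlabeled plus 80 nM labeled peptide and 30 μM ATP, run 60 min. Quenched with IMAP binding beads in buffer with 24 mM NaCl; fluorescence polarization read after 60 min binding equilibration.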

[1] abbreviates: phosphorylated active hERK2, 30 μM ATP, average, read-out: ERK 2 Human average IC50.
Where [2] appears, read: read-out: AERK2 IC50 (Active human ERK2 Activity Assay).

Sequence of Active Human ERK2 (hERK2) (P28482 whole entry): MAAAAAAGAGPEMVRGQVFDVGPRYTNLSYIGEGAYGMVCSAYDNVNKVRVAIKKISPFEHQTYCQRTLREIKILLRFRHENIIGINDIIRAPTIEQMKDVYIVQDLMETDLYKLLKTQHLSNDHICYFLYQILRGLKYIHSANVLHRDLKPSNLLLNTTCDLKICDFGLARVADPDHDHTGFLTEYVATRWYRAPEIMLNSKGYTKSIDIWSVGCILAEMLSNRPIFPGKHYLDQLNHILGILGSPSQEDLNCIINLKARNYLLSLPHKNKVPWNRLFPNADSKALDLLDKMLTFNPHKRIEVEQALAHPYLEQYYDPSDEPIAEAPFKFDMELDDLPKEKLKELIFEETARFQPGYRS

For `COc1cccc(F)c1CN1CCC[C@@H](NC(=O)Nc2cc3[nH]nc(-c4ccc(C#N)cc4)c3cn2)C1` [Example 655], the IC50 under setting [1] turned out to be 2.27 nM. For the molecule `C[C@@H](NC(=O)Nc1cc2[nH]nc(C3(C)CC3(F)F)c2cn1)c1ccc(F)cc1` (stereo partly drawn) [Example 159, 1-[3-(2,2-difluoro-1-methylcyclopropyl)-1H-pyrazolo[4,3-c]pyridin-6-yl]-3-[(1R)-1-(4-fluorophenyl)ethyl]urea], the 50% inhibitory concentration (IC50) under setting [1] amounted to 610 nM. Turning to `Cc1cc(-c2n[nH]c3cc(NC(=O)N(C)Cc4cccnc4)ncc23)ccn1` [Example 46, 1-methyl-3-[3-(2-methylpyridin-4-yl)-1H-pyrazolo[4,3-c]pyridin-6-yl]-1-(pyridin-3-ylmethyl)urea], the IC50 under setting [1] came to 763 nM. On the same count and under the same terms, to `Cc1cc(-c2n[nH]c3cc(NC(=O)N[C@H]4COC[C@@H]4O)ncc23)ccn1` [Example 188] belongs 15.1 nM; to `Cc1cc(-c2n[nH]c3cc(NC(=O)NCC4CC4)ncc23)ccn1` [Example 35, 1-(cyclopropylmethyl)-3-[3-(2-methylpyridin-4-yl)-1H-pyrazolo[4,3-c]pyridin-6-yl]urea], 2.1 nM; to `COc1ccccc1CNC(=O)Nc1cc2[nH]nc(-c3ccnc(C)c3)c2cn1` [Example 529], 0.293 nM. `COc1ccc(-c2n[nH]c3cc(NC(=O)N[C@H](C)c4ccccc4)ncc23)cn1` [Example 650]: the half-maximal inhibitory concentration (IC50) under setting [1] was determined as 0.318 nM.

For the molecule `Cc1cc(-c2n[nH]c3cc(NC(=O)N[C@H]4CCOC4=O)ncc23)ccn1` [Example 456], under setting [1], the IC50 was 253 nM. Consider `CCCCNC(=O)Nc1cc2[nH]nc(C3CCC3)c2cn1` [Example 143, 1-butyl-3-(3-cyclobutyl-1H-pyrazolo[4,3-c]pyridin-6-yl)urea], for which, under setting [1], the half-maximal inhibitory concentration (IC50) was 39.7 nM. Still for that read-out and setting: to `CC[C@H](NC(=O)Nc1cc2[nH]nc(-c3ccnc(C)c3)c2cn1)c1ccc(Cl)cc1` [Example 413] belongs 39.2 nM; to `Cc1cc(-c2n[nH]c3cc(NC(=O)NC4CCCOC4)ncc23)ccn1` (stereo not shown) [Example 468], 8.62 nM; to `COC[C@@H](NC(=O)Nc1ncc2c(-c3ccnc(F)c3)n[nH]c2c1F)c1ccccc1` [Example 543], 0.272 nM. Same read-out and setting: to `Cc1cc(-c2n[nH]c3cc(NC(=O)N[C@@H](C)c4ccc(C#N)cc4)ncc23)ccn1` [Example 233] belongs 42.5 nM. Consider `COC[C@@H](NC(=O)Nc1cc2[nH]nc(-c3ccnc(N4CCNCC4)c3)c2cn1)c1ccc(F)cc1` [Example 306], for which the half-maximal inhibitory concentration (IC50) under setting [1] was found to be 0.81 nM. Regarding `Cc1cc(-c2n[nH]c3cc(NC(=O)N[C@@H](C)C(=O)O)ncc23)ccn1` [Example 454], the half-maximal inhibitory concentration (IC50) under setting [1] was 237 nM. Consider `Cc1cc(-c2n[nH]c3cc(NC(=O)NCc4ccc5ccccc5c4)ncc23)ccn1` [Example 45, 1-[3-(2-methylpyridin-4-yl)-1H-pyrazolo[4,3-c]pyridin-6-yl]-3-(naphthalen-2-ylmethyl)urea], for which, under setting [1], the IC50 stood at 2.74 nM. Still for that read-out and setting: to `Cc1cc(-c2n[nH]c3cc(NC(=O)NCCC4=CCCC4)ncc23)ccn1` [Example 212] belongs 1.76 nM. Still for that read-out and setting: to `COc1ncc(-c2n[nH]c3cc(NC(=O)N[C@H](C)c4ccc(F)cc4)ncc23)cn1` [Example 252] belongs 0.746 nM. On the same count and under the same terms, to `Cc1cc(-c2n[nH]c3cc(NC(=O)NCC4CCCO4)ncc23)ccn1` (stereo not shown) [Example 458] belongs 8.46 nM; to `CNC1(CNC(=O)Nc2cc3[nH]nc(-c4ccnc(C)c4)c3cn2)CCOC1` (stereo not shown) [Example 197], 53.7 nM; to `Cc1cc(-c2n[nH]c3cc(NC(=O)N[C@@H]4CN(C)C[C@H]4C)ncc23)ccn1` [Example 206], 3.59 nM. Take `CCCC(=O)c1n[nH]c2cc(NC(=O)N[C@H](COC)c3ccccc3)ncc12` [Example 684]: the half-inhibitory concentration (IC50) under setting [1] is 26.8 nM.

In the case of `COC[C@H](NC(=O)Nc1cc2[nH]nc(-c3ccnc(C)c3)c2cn1)c1ccccc1` [Example 587], the IC50 under setting [1] was found to be 12.6 nM. As for `Cc1cc(-c2n[nH]c3cc(NC(=O)NC4CCOc5cc(F)ccc54)ncc23)ccn1` (stereo not shown) [Example 286], the 50% inhibitory concentration (IC50) under setting [1] turned out to be 9.59 nM. As for `Cc1cc(-c2n[nH]c3cc(NC(=O)N[C@H](C)c4ccccc4)ncc23)cnn1` [Example 91, 1-[3-(6-methylpyridazin-4-yl)-1H-pyrazolo[4,3-c]pyridin-6-yl]-3-[(1R)-1-phenylethyl]urea], the IC50 reads like this: under setting [1], 0.878 nM; under setting [2], 0.2 to 1.7 nM. With `Cc1cc(-c2n[nH]c3cc(NC(=O)N[C@H](C)c4ccccc4)ncc23)no1` [Example 682], the half-inhibitory concentration (IC50) under setting [1] came out at 32.4 nM. With `Cc1cc(-c2n[nH]c3cc(NC(=O)NC(C)c4cccnc4)ncc23)ccn1` (stereo not shown) [Example 49, 1-[3-(2-methylpyridin-4-yl)-1H-pyrazolo[4,3-c]pyridin-6-yl]-3-(1-pyridin-3-ylethyl)urea], the half-inhibitory concentration (IC50) reads like this: under setting [1], 1.04 nM; under setting [2], 0.2 to 1.7 nM.

`COC[C@@H](NC(=O)Nc1cc2[nH]nc(-c3ccnc(C4CC4)c3)c2cn1)c1ccccc1` [Example 605]: the IC50 under setting [1] came out at 0.326 nM.

On to `Cc1ccnc(C(C)NC(=O)Nc2cc3[nH]nc(-c4ccnc(C)c4)c3cn2)c1` (stereo not shown) [Example 498], for which the IC50 under setting [1] came out at 2.82 nM. Still for that read-out and setting: to `Cc1cc(-c2n[nH]c3cc(NC(=O)NCCc4ccccn4)ncc23)ccn1` [Example 47, 1-[3-(2-methylpyridin-4-yl)-1H-pyrazolo[4,3-c]pyridin-6-yl]-3-(2-pyridin-2-ylethyl)urea] belongs 2.34 nM; to `Cc1cc(-c2n[nH]c3cc(NC(=O)NC(CN)c4ccc(F)cc4)ncc23)ccn1` (stereo not shown) [Example 522], 0.357 nM. Same read-out and setting: to `Cc1cc(-c2n[nH]c3cc(NC(=O)NC4(c5ccncc5)CCC4)ncc23)ccn1` [Example 352] belongs 30.2 nM; to `Cc1cc(-c2n[nH]c3cc(NC(=O)N[C@@H](CO)c4cccc5cc[nH]c45)ncc23)ccn1` [Example 363], 25.9 nM; to `CC1=NOC(C)(CNC(=O)Nc2cc3[nH]nc(-c4ccnc(C)c4)c3cn2)C1` (stereo not shown) [Example 192], 21.7 nM. The same measure, in the same setting: to `Cc1cc(-c2n[nH]c3cc(NC(=O)N[C@@H]4CCCc5ccncc54)ncc23)ccn1` [Example 263] belongs 1.8 nM. Take `Cc1cc(-c2n[nH]c3cc(NC(=O)NCC(=O)O)ncc23)ccn1` [Example 462]: the IC50 under setting [1] is 356 nM. Turning to `O=C(Nc1cc2[nH]nc(C3CC3)c2cn1)N[C@@H]1CCCOc2ccccc21` [Example 295], the IC50 under setting [1] came out at 2.67 nM. Still for that read-out and setting: to `COCCNC(=O)Nc1cc2[nH]nc(-c3ccnc(C)c3)c2cn1` [Example 40, 1-(2-methoxyethyl)-3-[3-(2-methylpyridin-4-yl)-1H-pyrazolo[4,3-c]pyridin-6-yl]urea] belongs 2.9 nM; to `CN(C)CCNC(=O)Nc1cc2[nH]nc(-c3ccc(F)cc3)c2cn1` [Example 224], 24.3 nM; to `COc1ccnc([C@H](C)NC(=O)Nc2cc3[nH]nc(-c4ccnc(C)c4)c3cn2)c1` [Example 230], 650 nM. Same read-out and setting: to `C[C@@H](NC(=O)Nc1cc2[nH]nc(-c3ccnc(F)c3)c2cn1)C1CCCCC1` [Example 593] belongs 3.34 nM; to `Cc1cc(-c2n[nH]c3cc(NC(=O)NC4CNc5ccccc5C4)ncc23)ccn1` (stereo not shown) [Example 501], 0.958 nM; to `Cc1cc(-c2n[nH]c3cc(NC(=O)NC(CS(C)(=O)=O)c4ccccc4)ncc23)ccn1` (stereo not shown) [Example 566], 0.313 nM. The same measure, in the same setting: to `C[C@@H](NC(=O)Nc1cc2[nH]nc(-c3cnn(C)c3)c2cn1)c1ccc(F)cc1` [Example 259] belongs 0.469 nM.

For the origin of these results see US9023865B2, “Compounds that are ERK inhibitors” (Merck Sharp & Dohme Corp., priority 2011, dated 2015).
